Test results as given in US11446352B2, “Compositions and methods for inhibiting tumor-induced immune suppression” (priority 2017, dated 2022).

How the values were obtained:
[1] = tested on: Hsp90 chaperoning machine; assay: progesterone receptor (PR) refolding assay using reticulocyte lysate (RRL); type: biochemical; conditions: 10 μM EnnA
Text: The first bar indicates 100% folding activity of RRL without inhibitor. PR22 indicates the antibody without PR but with RRL and EnnA. PR represents the antibody (PR22) with PR but without RRL. All other samples have PR22, PR, and RRL without (first bar) or with increased concentration of EnnA. FIGS. 1C-1E are line graphs of cell survival versus EnnA concentration (μM) in breast cancer cell lines Hs578T (FIG. 1C), […] (FIG. 1D) and MDA-MB231 (FIG. 1E) upon treatment with EnnA for 48 and 72 h. […] PR alone (PR), antibody (PR22)+RRL, PR+RRL without inhibitor (RRL), PR+RRL with 1 μM 17-AAG (17AAG) PR+RRL with 10 μM BEAU or EnnA. FIGS. 1G-1I are autoradiographs of Western blots of cytosols from various cell lines treated with 17-AAG (1 μM) or EnnA (3 μM) with antibodies against the specified proteins. FIG. 1J is an autoradiograph showing EnnA causes autophagy in Hs578T and MDA-MB453 cell lines. FIGS. 1K-1N are electron microscopy micrographs showing autophagosomes and reduced mitochondria content in Hs578T cells treated with DMSO or EnnA. FIGS. 1O-1P are fluorescence micrographs showing EnnA causing reduced mitochondria content in Hs578T cells. FIGS. 1Q-1BB are fluorescence micrographs showing mitophagy in Hsp578T cells treated with EnnA as indicated by colocalization of the mitochondria marker Cox4 and the autophagy marker LC3BII.
A cell-free high-throughput screen (HTS) platform based on the progesterone receptor (PR) using reticulocyte lysate (RRL) as a source of molecular chaperones was used to screen 175 natural products (Patwardhan C A, et al., J Biomol Screen (2014)). This assay captures the physiological steps of PR refolding by the Hsp90 chaperoning machine and measures the recovery of its hormone-binding activities after mild heat treatment. It has the ability to identify inhibitors as well as activators of the core components of the Hsp90 chaperoning machine (i.e., Hsp90, Hsp70, Hsp40, Hsp90/Hsp70 organizing protein (HOP), and p23), including compounds that target chaperone complexes as well as individual proteins.

[2] = tested on: IDO; assay: HPLC-based assay of tryptophan and kynurenine in culture media; type: cell-based; conditions: HEK 293 cells expressing IDO-GFP
Protocol: FIG. 3A-3B are autoradiographs of a Western blot showing expression of the indicated proteins in control (left lane) and 0.5 μM EnnA-treated (right lane) E0771 (FIG. 3A) and AT3 (FIG. 3B) cells. FIG. 3C is a graph showing FACS analysis of PD-L1 level in AT3 cells. FIGS. 3D-3K are graphs showing qPCR analysis of the mRNA level of cytokines TNFa (FIG. 3D), IL-6 (FIG. 3E), TGFb1 (FIG. 3F) and IL-10 (FIG. 3G), the chemokines S100a9 (FIG. 3J) and CCL3 (FIG. 3K), as well as PDL1 (FIG. 3H) and IDO (FIG. 3I). FIGS. 3L-3Q are micrographs of HEK293 cells transiently transfected with GFP-IDO fusion protein expressing or GFP alone plasmids for 24 h. Cells were then treated with 5 μM EnnA for 6 h and analyzed for green fluorescence and bright light. FIG. 3R is a line graph of μg/ml of tryptophan and its IDO-mediated product kynurenine using the previously reported HPLC-based assay.
Western blot analysis (FIG. 3A-3B) confirmed that EnnA destabilizes pAKT and reduces the protein expression of Hsp40 in E0771 and AT3. […] It also reduces the mRNA level of the chemokines S100a9 and CCL3 (FIG. 3J-3K). Importantly, EnnA reduces the mRNA and protein levels of the key immunological checkpoint component PDL-1 (FIG. 3H). Similar results were obtained with EMT6 (not shown). […]

[3] = tested on: E0771 tumor microenvironment; assay: analysis of tumors and splenocytes from EnnA-treated mice (Western blot, FACS, immunohistochemistry, immunofluorescence); type: in vivo
Protocol: FIG. 5A is a line graph of tumor volume (mm^3) versus time (days) of mice injected with 100,000 E0771. Ten days after surgery, mice were divided into two groups: the EnnA group was injected with 10 mg/kg of EnnA. every other day, and the control group received a mixture of 15% DMSO and 20% cremophor in PBS. FIG. 5B is a line graph of body weight versus time (days) of mice treated with DMSO or EnnA. FIG. 5C is autoradiograph of a Western blot of four animals from each group using the indicated specific antibodies. FIG. 5D is a bar graph of % of gated cells treated with DMSO or EnnA showing FACS analysis of tumor cells for PDL1. FIG. 5E-5J is a panel of micrographs showing immunohistochemistry analysis of H&E staining of tumors from control and EnnA mice for analysis of necrotic tissue. FIGS. 5K-5P is a panel of micrographs showing immunohistochemistry analysis of tumors from control and EnnA mice for analysis of immune cells infiltration using anti-CD45 antibody. FIG. 5Q is a bar graph of % of gated cells treated with DMSO showing that EnnA treatment reduces CD4+/Foxp3+ Tregs. FIG. 5R is a bar graph of % of gated cells treated with DMSO or EnnA showing that EnnA treatment reduces CD11b+Gr-1+ MDSCs. FIG. 5S is a bar graph of % of gated cells treated with DMSO or EnnA showing that EnnA treatment reduces the number of CD8+/PD-1+ lymphocytes. FIG. 5T is a bar graph of % of cells treated with DMSO or EnnA showing that EnnA treatment increase the number of GR-1-CD11c+CD103+ lymphocytes.
FIGS. 8A-8L show immunofluorescent staining of E0771 tumors using anti-CD45 and anti-CD8β antibodies. FIGS. 8M-8T show immunofluorescent staining of E0771 tumors using anti-CD45 and anti-CTLA-4 antibodies. […] FIG. 8V is a bar graph showing the results of FACS analysis of CD8 positive cells in E0771 tumor-bearing mice treated with DMSO, EnnA, αCD8, or EnnA+αCD8. The X axis represents treatment group and the Y axis represents percent CD8 positive cells. FIG. 8W is a model for EnnA inhibition of Hsp 90 machinery and its impacts on the immune suppressive mechanism through PD-1 and IDO.
100,000 E0771 cells were surgically implanted in mammary fat pad of 20 mice. Ten days after surgery, mice were divided into two groups: the EnnA group was injected with 10 mg/kg of EnnA every other day, and the control group received a mixture of 15% DMSO and 20% cremophor in PBS.

For CC[C@H](C)[C@H]1C(=O)O[C@H](C(C)C)C(=O)N(C)[C@@H]([C@@H](C)CC)C(=O)O[C@H](C(C)C)C(=O)N(C)[C@@H]([C@@H](C)CC)C(=O)O[C@H](C(C)C)C(=O)N1C [EnnA, Enniatin A], the “level of Hsp90 in PR complexes” value ([1]; protein complex analysis after PR reconstitution) was “reduces”, the “accumulation of Hsp70-rich PR complexes” value ([1]; protein complex analysis, 1 μM 17-AAG) was “does not induce” and the “IDO enzymatic activity (tryptophan accumulation, kynurenine reduction in culture media)” value [2] was “loss of IDO enzymatic activity”. For the same molecule, the “PD-1 expression of infiltrating CD8+ lymphocytes” value ([3]; FACS) was “lower levels”, the “number of CD4+Foxp3+ T regulatory cells (Tregs) in tumors” value ([3]; FACS) was “significantly reduced” and the “number of MDSCs in tumors” value ([3]; FACS, CD11b+Gr-1+) was “significantly reduced”. The “number of GR-1-CD11c+CD103+ lymphocytes” value ([3]; FACS, FIG. 5T) was “increase”, the tumor necrosis ([3]; H&E staining) was “heavily necrotic” and the “Hsp90 client proteins in tumors” value ([3]; Western blot of tumors from treated mice) was “destabilized”. For the same molecule, the “infiltration of tumors by T lymphocytes” value ([3]; anti-CD45 immunohistochemistry) was “massive infiltration”, the “infiltration of tumors with CD45+, CD8β+ T cells” value ([3]; immunofluorescent staining) was “higher infiltration” and the “proportion of CD8β cells in spleenocytes” value ([3]; tumor bearing animals, FACS) was “increase”. For the same molecule, the “PD-L1 and IDO in vivo” value ([3]; tumors, Western blot and FACS) was “destabilizes”.
